Results: ChEMBL document CHEMBL4814003, “Novel dual-mode antitumor chlorin-based derivatives as potent photosensitizers and histone deacetylase inhibitors for photodynamic therapy and chemotherapy” (Eur J Med Chem, 2021)

Test system: HCT-116
Assay: Phototoxicity in human HCT-116 cells assessed as reduction in cell viability irradiated 10 j/cm2 for 24 hrs followed by incubated for 24 hrs by CCK8 assay
Format: functional, cell-based
Conditions: HCT-116, light or radiation study

Compound	IC50
C=Cc1c(C)c2cc3nc(c(C(=O)OC)c4[nH]c(cc5nc(cc1[nH]2)C(C)=C5CC)c(C)c4C(=O)OC)[C@@H](CCC(=O)NCCCCC(=O)NO)[C@@H]3C	0.108 µM
C=Cc1c(C)c2cc3nc(cc4[nH]c(cc5nc(cc1[nH]2)C(C)=C5CC)c(C)c4C(=O)OC)[C@@H](CCC(=O)O)[C@@H]3C	1.47 µM
C=Cc1c(C)c2cc3nc(c(C(=O)OC)c4[nH]c(cc5nc(cc1[nH]2)C(C)=C5CC)c(C)c4C(=O)OC)[C@@H](CCC(=O)Nc1ccc(C(=O)NO)cc1)[C@@H]3C	0.27 µM
C=Cc1c(C)c2cc3nc(c(CC(=O)N[C@@H](CC(=O)O)C(=O)O)c4[nH]c(cc5nc(cc1[nH]2)C(C)=C5CC)c(C)c4C(=O)O)[C@@H](CCC(=O)O)[C@@H]3C [TALAPORFIN]	2.95 µM
C=Cc1c(C)c2cc3nc(c(C(=O)OC)c4[nH]c(cc5nc(cc1[nH]2)C(C)=C5CC)c(C)c4C(=O)OC)[C@@H](CCC(=O)NCCCCC(=O)Nc1ccccc1N)[C@@H]3C	0.26 µM
C=Cc1c(C)c2cc3nc(c(C(=O)OC)c4[nH]c(cc5nc(cc1[nH]2)C(C)=C5CC)c(C)c4C(=O)OC)[C@@H](CCC(=O)NCCCCCC(=O)NO)[C@@H]3C	0.039 µM

Test system: A549
Assay: Dark toxicity in human A549 cells assessed as reduction in cell viability incubated under dark for 48 hrs measured after 48 hrs by CCK8 assay
Format: functional, cell-based
Conditions: A549, 48 h

Compound	IC50
C=Cc1c(C)c2cc3nc(c(C(=O)OC)c4[nH]c(cc5nc(cc1[nH]2)C(C)=C5CC)c(C)c4C(=O)OC)[C@@H](CCC(=O)NCCCCC(=O)NO)[C@@H]3C	1.51 µM
C=Cc1c(C)c2cc3nc(cc4[nH]c(cc5nc(cc1[nH]2)C(C)=C5CC)c(C)c4C(=O)OC)[C@@H](CCC(=O)O)[C@@H]3C	15.3 µM
C=Cc1c(C)c2cc3nc(c(C(=O)OC)c4[nH]c(cc5nc(cc1[nH]2)C(C)=C5CC)c(C)c4C(=O)OC)[C@@H](CCC(=O)Nc1ccc(C(=O)NO)cc1)[C@@H]3C	0.93 µM
C=Cc1c(C)c2cc3nc(c(CC(=O)N[C@@H](CC(=O)O)C(=O)O)c4[nH]c(cc5nc(cc1[nH]2)C(C)=C5CC)c(C)c4C(=O)O)[C@@H](CCC(=O)O)[C@@H]3C [TALAPORFIN]	181 µM
C=Cc1c(C)c2cc3nc(c(C(=O)OC)c4[nH]c(cc5nc(cc1[nH]2)C(C)=C5CC)c(C)c4C(=O)OC)[C@@H](CCC(=O)NCCCCC(=O)Nc1ccccc1N)[C@@H]3C	3.51 µM
C=Cc1c(C)c2cc3nc(c(C(=O)OC)c4[nH]c(cc5nc(cc1[nH]2)C(C)=C5CC)c(C)c4C(=O)OC)[C@@H](CCC(=O)NCCCCCC(=O)NO)[C@@H]3C	1.36 µM

Test system: A549
Assay: Phototoxicity in human A549 cells assessed as reduction in cell viability irradiated 10 j/cm2 for 24 hrs followed by incubated for 24 hrs by CCK8 assay
Format: functional, cell-based
Conditions: A549, light or radiation study

Compound	IC50
C=Cc1c(C)c2cc3nc(c(C(=O)OC)c4[nH]c(cc5nc(cc1[nH]2)C(C)=C5CC)c(C)c4C(=O)OC)[C@@H](CCC(=O)NCCCCC(=O)NO)[C@@H]3C	0.18 µM
C=Cc1c(C)c2cc3nc(cc4[nH]c(cc5nc(cc1[nH]2)C(C)=C5CC)c(C)c4C(=O)OC)[C@@H](CCC(=O)O)[C@@H]3C	0.92 µM
C=Cc1c(C)c2cc3nc(c(C(=O)OC)c4[nH]c(cc5nc(cc1[nH]2)C(C)=C5CC)c(C)c4C(=O)OC)[C@@H](CCC(=O)Nc1ccc(C(=O)NO)cc1)[C@@H]3C	0.13 µM
C=Cc1c(C)c2cc3nc(c(CC(=O)N[C@@H](CC(=O)O)C(=O)O)c4[nH]c(cc5nc(cc1[nH]2)C(C)=C5CC)c(C)c4C(=O)O)[C@@H](CCC(=O)O)[C@@H]3C [TALAPORFIN]	6.21 µM
C=Cc1c(C)c2cc3nc(c(C(=O)OC)c4[nH]c(cc5nc(cc1[nH]2)C(C)=C5CC)c(C)c4C(=O)OC)[C@@H](CCC(=O)NCCCCC(=O)Nc1ccccc1N)[C@@H]3C	0.3 µM
C=Cc1c(C)c2cc3nc(c(C(=O)OC)c4[nH]c(cc5nc(cc1[nH]2)C(C)=C5CC)c(C)c4C(=O)OC)[C@@H](CCC(=O)NCCCCCC(=O)NO)[C@@H]3C	0.12 µM

Test system: A549
Assay: Induction of autophagy in human A549 cells irradiated 10 j/cm2 at 0.1 uM after 24 hrs using fluorescent molecule DAPRed
Format: functional
Conditions: not given

Compound	Activity
C=Cc1c(C)c2cc3nc(c(CC(=O)N[C@@H](CC(=O)O)C(=O)O)c4[nH]c(cc5nc(cc1[nH]2)C(C)=C5CC)c(C)c4C(=O)O)[C@@H](CCC(=O)O)[C@@H]3C [TALAPORFIN]	19.08%

Test system: A549
Assay: Induction of reactive oxygen species generation in human A549 cells assessed as mean count value at 0.05 uM incubated for 24 hrs by DCFH-DA staining based fluorescence microscopy assay
Format: functional
Conditions: not given

Compound	Activity
C=Cc1c(C)c2cc3nc(c(CC(=O)N[C@@H](CC(=O)O)C(=O)O)c4[nH]c(cc5nc(cc1[nH]2)C(C)=C5CC)c(C)c4C(=O)O)[C@@H](CCC(=O)O)[C@@H]3C [TALAPORFIN]	153.14

Test system: HCT-116
Assay: Dark toxicity in human HCT-116 cells assessed as reduction in cell viability incubated under dark for 48 hrs measured after 48 hrs by CCK8 assay
Format: functional, cell-based
Conditions: HCT-116, 48 h

Compound	IC50
C=Cc1c(C)c2cc3nc(c(C(=O)OC)c4[nH]c(cc5nc(cc1[nH]2)C(C)=C5CC)c(C)c4C(=O)OC)[C@@H](CCC(=O)NCCCCC(=O)NO)[C@@H]3C	2.81 µM
C=Cc1c(C)c2cc3nc(cc4[nH]c(cc5nc(cc1[nH]2)C(C)=C5CC)c(C)c4C(=O)OC)[C@@H](CCC(=O)O)[C@@H]3C	21.8 µM
C=Cc1c(C)c2cc3nc(c(C(=O)OC)c4[nH]c(cc5nc(cc1[nH]2)C(C)=C5CC)c(C)c4C(=O)OC)[C@@H](CCC(=O)Nc1ccc(C(=O)NO)cc1)[C@@H]3C	3.49 µM
C=Cc1c(C)c2cc3nc(c(CC(=O)N[C@@H](CC(=O)O)C(=O)O)c4[nH]c(cc5nc(cc1[nH]2)C(C)=C5CC)c(C)c4C(=O)O)[C@@H](CCC(=O)O)[C@@H]3C [TALAPORFIN]	50.7 µM
C=Cc1c(C)c2cc3nc(c(C(=O)OC)c4[nH]c(cc5nc(cc1[nH]2)C(C)=C5CC)c(C)c4C(=O)OC)[C@@H](CCC(=O)NCCCCC(=O)Nc1ccccc1N)[C@@H]3C	8.63 µM
C=Cc1c(C)c2cc3nc(c(C(=O)OC)c4[nH]c(cc5nc(cc1[nH]2)C(C)=C5CC)c(C)c4C(=O)OC)[C@@H](CCC(=O)NCCCCCC(=O)NO)[C@@H]3C	6.89 µM

Biological target: Histone deacetylase 1 (Homo sapiens, UniProt Q13547)
Assay: Inhibition of human recombinant HDAC1 using Ac-Leu-Gly-Lys(Ac)-AMC as substrate by measuring fluorescence intensity incubated for 30 mins by microplate reader assay
Conditions: not given

Sequence of Histone deacetylase 1 (Q13547 whole entry): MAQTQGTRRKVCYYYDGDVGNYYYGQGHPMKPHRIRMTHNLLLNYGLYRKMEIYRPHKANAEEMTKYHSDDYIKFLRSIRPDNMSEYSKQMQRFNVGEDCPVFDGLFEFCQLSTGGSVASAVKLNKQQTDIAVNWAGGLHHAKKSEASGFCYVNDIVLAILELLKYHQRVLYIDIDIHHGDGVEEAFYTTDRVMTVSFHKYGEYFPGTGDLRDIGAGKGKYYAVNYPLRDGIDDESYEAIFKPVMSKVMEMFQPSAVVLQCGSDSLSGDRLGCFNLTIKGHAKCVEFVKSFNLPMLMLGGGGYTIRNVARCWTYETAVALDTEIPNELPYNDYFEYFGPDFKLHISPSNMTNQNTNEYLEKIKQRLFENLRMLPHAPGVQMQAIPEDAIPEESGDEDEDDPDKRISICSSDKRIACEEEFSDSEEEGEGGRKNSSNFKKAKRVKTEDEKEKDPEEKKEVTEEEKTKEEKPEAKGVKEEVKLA

Compound	IC50
C=Cc1c(C)c2cc3nc(c(C(=O)OC)c4[nH]c(cc5nc(cc1[nH]2)C(C)=C5CC)c(C)c4C(=O)OC)[C@@H](CCC(=O)NCCCCC(=O)NO)[C@@H]3C	49 µM
C=Cc1c(C)c2cc3nc(c(C(=O)OC)c4[nH]c(cc5nc(cc1[nH]2)C(C)=C5CC)c(C)c4C(=O)OC)[C@@H](CCC(=O)Nc1ccc(C(=O)NO)cc1)[C@@H]3C	11 µM
C=Cc1c(C)c2cc3nc(c(C(=O)OC)c4[nH]c(cc5nc(cc1[nH]2)C(C)=C5CC)c(C)c4C(=O)OC)[C@@H](CCC(=O)NCCCCC(=O)Nc1ccccc1N)[C@@H]3C	81 µM
C=Cc1c(C)c2cc3nc(c(C(=O)OC)c4[nH]c(cc5nc(cc1[nH]2)C(C)=C5CC)c(C)c4C(=O)OC)[C@@H](CCC(=O)NCCCCCC(=O)NO)[C@@H]3C	88 µM

Test system: A549
Assay: Induction of reactive oxygen species generation in human A549 cells assessed as mean count value at 0.01 uM incubated for 24 hrs by DCFH-DA staining based fluorescence microscopy assay
Format: functional
Conditions: not given

Compound	Activity
C=Cc1c(C)c2cc3nc(c(CC(=O)N[C@@H](CC(=O)O)C(=O)O)c4[nH]c(cc5nc(cc1[nH]2)C(C)=C5CC)c(C)c4C(=O)O)[C@@H](CCC(=O)O)[C@@H]3C [TALAPORFIN]	125.93
